Measured values published in paper PMC3711766 (The Journal of neuroscience : the official journal of the …, 2013).
Where two headings read alike, the source gives them in different places. Where a SMILES comes first, the peptide text is derived from it. [ ]: non-standard residue; d: D form. The star is where a group is joined. X1 = CN1c2cc3c(cc2C(CS(=O)(=O)[O-])=CC1(C)C)C(c1ccc(C(=O)NCCCCCN2C(=O)CC(*)C2=O)cc1C(=O)O)=c1cc2c(cc1O3)=[N+](C)C(C)(C)C=C2CS(=O)(=O)O

Key:
FLAG-MOR [1] = target: T1, FLAG-MOR (Mus musculus, UniProt P42866); assay: Binding and unbinding kinetics of derm A594 in live FLAG-MOR HEK 293 cells; settings: for average time constant of association: derm A594 30 nM
FLAG-MOR [2] = target: T1, FLAG-MOR; assay type: binding; settings: derm A594 200 nM; ME 30 µM 2 hrs, then ME 3 µM pre pulse
FLAG-MOR [3] = target: T1, FLAG-MOR; assay type: binding
FLAG-MOR [4] = target: T1, FLAG-MOR; assay: Steady state binding of derm A594 in live FLAG-MOR HEK 293 cells
FLAG-MOR [5] = target: T1, FLAG-MOR; assay type: binding; remark: listed apart in the source
FLAG-MOR [6] = target: T1, FLAG-MOR; assay type: cell-based; settings: ME 1 µM, 5 sec; pertussis toxin 100 ng/mL overnight

T1 sequence (P42866 whole entry): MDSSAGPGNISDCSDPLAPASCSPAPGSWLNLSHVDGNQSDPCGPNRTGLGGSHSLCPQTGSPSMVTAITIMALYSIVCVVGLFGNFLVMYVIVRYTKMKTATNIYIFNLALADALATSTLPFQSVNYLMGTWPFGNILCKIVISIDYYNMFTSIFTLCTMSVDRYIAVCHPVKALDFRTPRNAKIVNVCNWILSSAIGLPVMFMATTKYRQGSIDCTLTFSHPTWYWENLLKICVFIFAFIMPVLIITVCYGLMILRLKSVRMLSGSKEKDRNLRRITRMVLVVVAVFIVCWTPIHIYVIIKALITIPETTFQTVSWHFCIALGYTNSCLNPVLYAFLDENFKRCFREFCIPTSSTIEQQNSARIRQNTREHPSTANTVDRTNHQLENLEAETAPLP

## C[C@@H](NC(=O)[C@@H](N)Cc1ccc(O)cc1)C(=O)N[C@@H](Cc1ccccc1)C(=O)NCC(=O)N[C@@H](Cc1ccc(O)cc1)C(=O)N1CCC[C@H]1C(=O)N[C@@H](CCCCN)C(=O)N[C@@H](CSC1CC(=O)N(CCCCCNC(=O)c2ccc(C3=c4cc5c(cc4Oc4cc6c(cc43)C(CS(=O)(=O)[O-])=CC(C)(C)N6C)=[N+](C)C(C)(C)C=C5CS(=O)(=O)O)c(C(=O)O)c2)C1=O)C(N)=O (stereo partly drawn) [derm A594, dermorphin Alexa 594] (H-Y[dA]FGYPKC(X1)-NH2; N-terminus assumed)
FLAG-MOR [1]
  kon: 353000 M⁻¹ s⁻¹
FLAG-MOR [1]; ME 30 µM 2 hr vs untreated
  decrease of koff after ME treatment: approximately 6 fold
  decrease of kon after ME treatment: about 40%
FLAG-MOR [1]; ME treated cells (30 µM 2 hr)
  average time constant of association: 51.5 ± 7.8 s
FLAG-MOR [1]; untreated cells
  average time constant of association: 11.4 ± 0.4 s
FLAG-MOR [1]; live cells
  time constant of dissociation from the receptor: ~10 s
FLAG-MOR [1]; read-out: koff (intercept of linear fit)
  koff: 0.011 s⁻¹
FLAG-MOR [2]
  relative amount of derm A594 bound after 1 min (R/G): 0.95±0.08
FLAG-MOR [3]; WT MEF cells, untreated
  fraction derm A594 remaining after 3 min: 0.09±0.01
FLAG-MOR [3]; β-arr 1/2 k.o. MEF cells, untreated
  fraction derm A594 remaining after 3 min: 0.13±0.02
FLAG-MOR [4]; after ME 30 µM 2 hrs
  Hill slope of steady state binding: 1.03±0.3
FLAG-MOR [4]; untreated live cells
  Hill slope of steady state binding: 0.95±.02

## COc1ccc2c3c1O[C@H]1C(=O)CC[C@@]4(O)[C@@H](C2)N(C)CC[C@]314 [oxycodone]
FLAG-MOR [5]
  fraction derm A594 remaining after 3 min: 0.23±0.01

## pertussis toxin [reference compound]
FLAG-MOR [6]
  GIRK current: 3.3±6.8 pA
FLAG-MOR [3]; β-arr 1/2 k.o. MEF cells, pertussis toxin 100 ng/ml overnight, no ME
  fraction derm A594 remaining after 3 min: 0.12±0.02
